Read-outs that look alike come from different tables or passages of the source.
Experiments:
[1] = Anti-radical activity (decay of the DPPH radical); format: biochemical; conditions: for Anti-radical (skin protective): 24 hours
Description: With regard to assays aimed at evaluating anti-radical activity, a chemical test was used where the decay of the diphenylpicrylhydrazyl (DPPH) radical is assessed in the absence or in the presence of the test substances. Indeed, the DPPH radical is used to test the ability of substances to act as free radical scavengers. DPPH in solution has a purple colour with a maximum absorbance peak at 517 nm which changes to yellow-colourless when this radical extracts a hydrogen atom from a radical scavenger to give rise to the reduced form DPPH-H. The assay has been conducted in quadruplicate in 96 well microplates (SARSTEDT Tissue Culture Plate 96-well flat bottom cell+). 50 µl of an ethanol solution of the test substance at 2X concentration and then 50 µl of a 200 µM solution of DPPH (MW 168,18, Aldrich 2,2-di(4-tert-octylphenyl)-1-picrylhydrazyl, free radical Lot# MKBF7574V Cat N° 257621-100 mg) have been added to each well of the microplate. A positive control consisting of 0.1 mM vitamin C and a negative control consisting of ethanol alone were included in each microplate. After 30 minutes from the addition of DPPH, photographs of the plates were taken (Canon PowerShot A610 5.0 Mpixels) and read spectrophotometrically at 530 nm.
Based on the analysis of the results reported in Table 9, some substances were selected for further characterisation of their anti-radical activity. For the selected substances, dose-activity curves were obtained and the IC50 value were computed using a non-linear regression model with the Hill equation at variable slope. Such substances had been selected due to both their anti-radical potential and the easiness of their isolation/production. The selection of substances was made in view of cosmetics applications. Moreover their activity on human dermal fibroblasts (HDF) is expected to be useful also for the development of dermatological medications. The selected substances are discussed below.

[2] = system: HDF cells; assay: Summary of uses and toxic effects deduced from the cell assays (Table 1); format: cell-based, Human; conditions: for Anti-fibrotic (prevention of scar formation, also from acne) / Cytoprotective (antioxidant, anti-inflammatory and anti-ageing; useful also in the treatment of acne) / Cytotoxic / Irritant / Wound-healing: 24 hours
Description: Antiradical (skin protective): this is deduced from the free radical scavenger effects.
Revitalizing: this is deduced from the increased mitochondrial dehydrogenase effect.
Cytoprotective, with regard to oxidative damage (antioxidant, anti-inflammatory and anti-ageing): this is deduced from antagonising the stimulation of IL-1β and/or IL-6 induced by 100 µM H2O2 and from the absence of changes in cell morphology similar to the ones due to cell senescence.
Wound healing: this is deduced from the effect of inhibiting the production of IL-1β and by the effect of stimulating cell proliferation under standard growth conditions.
Cytotoxicity: this is deduced from the effect of reducing mitochondrial dehydrogenase activity or from the presence of morphologies characteristic of cell senescence.
Irritation: this is deduced from the effect of increased production of IL-6 and/or IL-1β under standard growth conditions.
Said uses in the fields of medicine and cosmetics or the toxic effects of the substances of the invention at a given dosage, for 24 hours, are summarized in Table 1 below.

[3] = system: interleukin 6 (IL-6); assay: Inflammatory cytokines in cell supernatant (Mosaic ELISA microarray): IL-6; format: cell-based, Human; conditions: for IL-6 ng/(ml* No. of cells from photo) ± SD: 24 hours; for IL-6 production (effect in words): 1-10 µM
Description: (§1) The inflammatory cytokines, CD40 ligand (CD40L), interferon γ (INF-γ), interleukin 1α (IL-1α), interleukin 1β (IL-1β), interleukin 6 (IL-6), interleukin 8 (IL-8), interleukin 17 (IL-17) and tumour necrosis factor α (TNF-α) were determined qualitatively and quantitatively. Each measurement was performed in duplicate using a Mosaic™ ELISA protein microarray assay system from R&D System in accordance with the supplier's instructions. Furthermore, with the aim of obtaining a correlation model between light signal intensity and cytokine concentration, a calibration curve using 6 concentrations was performed for each of them. Analysis of the data was performed using the dedicated Q-View™ Imager software package from Quansys Biosciences

[4] = system: collagen produced by HDF cells; assay: Quantity of collagen produced by the cells (elution of Sirius Red)
[5] = system: HDF cells; assay: Evaluation of cell proliferation (counting of Sirius Red stained cells in photographs); conditions: 24 hours
[6] = system: interleukin 1β (IL-1β); assay: Inflammatory cytokines in cell supernatant (Mosaic ELISA microarray): IL-1β; format: cell-based, Human; conditions: for IL-1β ng/(ml* No. of cells from photo) ± SD: 24 hours
Description: as §1

[7] = system: Human dermal fibroblasts (HDF); assay: Mitochondrial dehydrogenase activity (WST-1 formazan assay) in HDF cells; conditions: for Revitalizing agent: 24 hours; for activity at 1 µM / activity at 10 µM: Homo sapiens, Fibroblast, read-out: % mitochondrial dehydrogenase activity ± SD
Description: Human dermal fibroblasts were used for assay at the 3rd T75 passage.
Mitochondrial dehydrogenase activity was measured in HDF, HEK and HUVEC cells by means of the formazan assay, using the WST-1 kit from Roche Diagnostic in accordance with the supplier's instructions. Briefly: the reagent was added (10 µl per well), the incubation was carried out for a further 2 hours or 4 hours, and, at the end of this time, the absorbance was read for 1 s at a wavelength of 450 nm in a Perkin Elmer Victor 2 Wallac microplate reader.
The activity percentage (% mitochondrial dehydrogenase activity) is defined as: % mitochondrial dehydrogenase activity = ((absorbance of treated cells - absorbance of blank) / (absorbance of control - absorbance of blank)) x 100.
The tests were performed with observations after 18 hours, seeding 8,000 cells per well, and after 42 hours, seeding 2,000 cells per well. Furthermore, in order to better analyze the dose/response curves for dihydroberberine, canadine and stylopine, curves were collected at 11 concentrations by seeding 2,000 cells per well with 46 hours incubation.
Dose/response curves are plotted at 6 concentrations. The tests were performed with observations after 24 hours, seeding 8,000 cells per well.

[8] = Dose 1 µm (coptisine: 1 pm [sic])

In the case of `COc1ccc2c(c1OC)CN1CCc3cc4c(cc3[C@@H]1C2)OCO4` [canadine], the “% DPPH activity” value ([1]; 1 mM, 30 minutes) is reported as 103%, the “Anti-radical (skin protective)” value [1, 8] is reported as “No” and the “Anti-radical (skin protective)” value ([1]; Dose 10 µm) is reported as “No”. For the same molecule, the “Anti-fibrotic (prevention of scar formation, also from acne)” value [2, 8] was “Yes (↓collagen, ↓IL-6, ↓IL-1β)”, the “Cytoprotective (antioxidant, anti-inflammatory and anti-ageing; useful also in the treatment of acne)” value [2, 8] was “Yes (↓IL-6, ↓IL-1β)” and the Cytotoxic [2, 8] was “No”. For the same molecule, the Irritant [2, 8] was “No”, the Wound-healing [2, 8] was “Yes (↓IL-1β)” and the “Anti-fibrotic (prevention of scar formation, also from acne)” value ([2]; Dose 10 µm) was “No”. For the same molecule, the “Cytoprotective (antioxidant, anti-inflammatory and anti-ageing; useful also in the treatment of acne)” value ([2]; Dose 10 µm) was “No”, the Cytotoxic ([2]; Dose 10 µm) was “No” and the Irritant ([2]; Dose 10 µm) was “Yes (↓IL-1β)”. The Wound-healing ([2]; Dose 10 µm) was “No”, the “concentrations at which no toxic (cytotoxic and irritant) effects are shown” value ([2]; exposure for 24 hours) was “less than or equal to 1 µM” and the “IL-6 ng/(ml* No. of cells from photo) ± SD” value ([3]; 1 µM, 34 ng/ml TGF-β1) was 451±121 ng/(ml* No. of cells from photo). The “IL-6 ng/(ml* No. of cells from photo) ± SD” value ([3]; 1 µM, 100 µM H2O2) was 584±19 ng/(ml* No. of cells from photo), the “IL-6 ng/(ml* No. of cells from photo) ± SD” value ([3]; 1 µM, Standard conditions) was 405±8 ng/(ml* No. of cells from photo) and the “IL-6 ng/(ml* No. of cells from photo) ± SD” value ([3]; 10 µM, 34 ng/ml TGF-β1) was 724±43 ng/(ml* No. of cells from photo). For the same molecule, the “IL-6 ng/(ml* No. of cells from photo) ± SD” value ([3]; 10 µM, 100 µM H2O2) was 718±63 ng/(ml* No. of cells from photo), the “IL-6 ng/(ml* No. of cells from photo) ± SD” value ([3]; 10 µM, Standard conditions) was 508±43 ng/(ml* No. of cells from photo) and the “IL-6 production (effect in words)” value ([3]; 34 ng/ml TGF-β1) was “antagonizes the production of IL-6”. For the same molecule, the “IL-6 production (effect in words)” value ([3]; 100 µM H2O2) was “antagonizes the production of IL-6”, the “IL-6 production (effect in words)” value ([3]; standard conditions) was “inhibits the production of IL-6” and the “collagen production (effect in words)” value ([4]; 1 µM, standard conditions) was “no evident effect on the modulation of collagen production”. The “collagen production (effect in words)” value ([4]; 10 µM, standard conditions) was “collagen production stimulation effect”, the “collagen production (effect in words)” value ([4]; 1-10 µM (1 µM and 10 µM), 34 ng/ml TGF-β1) was “antagonizes the stimulation of collagen induced by 34 ng/ml TGF-β1” and the “collagen production (effect in words)” value ([4]; 1-10 µM (1 µM and 10 µM), 100 µM H2O2) was “inhibits collagen production”. The “No. of cells from photo ± SD” value ([5]; 1 µM, 34 ng/ml TGF-β1) was 206±40, the “No. of cells from photo ± SD” value ([5]; 1 µM, 100 µM H2O2) was 253±32 and the “No. of cells from photo ± SD” value ([5]; 1 µM, Standard conditions) was 207±12. For the same molecule, the “No. of cells from photo ± SD” value ([5]; 10 µM, 34 ng/ml TGF-β1) was 138±3, the “No. of cells from photo ± SD” value ([5]; 10 µM, 100 µM H2O2) was 188±25 and the “No. of cells from photo ± SD” value ([5]; 10 µM, Standard conditions) was 138±5. The “IL-1β production (effect in words)” value ([6]; 1 µM, 34 ng/ml TGF-β1) was “antagonizes the production of IL-1β”, the “IL-1β ng/(ml* No. of cells from photo) ± SD” value ([6]; 1 µM, 34 ng/ml TGF-β1) was 116±19 ng/(ml* No. of cells from photo) and the “IL-1β production (effect in words)” value ([6]; 1 µM, 100 µM H2O2) was “antagonizes the production of IL-1β”. For the same molecule, the “IL-1β ng/(ml* No. of cells from photo) ± SD” value ([6]; 1 µM, 100 µM H2O2) was 90±3 ng/(ml* No. of cells from photo), the “IL-1β ng/(ml* No. of cells from photo) ± SD” value ([6]; 1 µM, Standard conditions) was 81±2 ng/(ml* No. of cells from photo) and the “IL-1β production (effect in words)” value ([6]; 1 µM, standard conditions) was “inhibits the production of IL-1β”. The “IL-1β production (effect in words)” value ([6]; 10 µM, 34 ng/ml TGF-β1) was “antagonizes the production of IL-1β”, the “IL-1β ng/(ml* No. of cells from photo) ± SD” value ([6]; 10 µM, 34 ng/ml TGF-β1) was 173±14 ng/(ml* No. of cells from photo) and the “IL-1β production (effect in words)” value ([6]; 10 µM, 100 µM H2O2) was “antagonizes the production of IL-1β”. For the same molecule, the “IL-1β ng/(ml* No. of cells from photo) ± SD” value ([6]; 10 µM, 100 µM H2O2) was 132±138 ng/(ml* No. of cells from photo), the “IL-1β ng/(ml* No. of cells from photo) ± SD” value ([6]; 10 µM, Standard conditions) was 109±1 ng/(ml* No. of cells from photo) and the “IL-1β production (effect in words)” value ([6]; 10 µM, standard conditions) was “stimulates the production of IL-1β”. For the same molecule, the “concentrations below which no significant effects on mitochondrial dehydrogenase activity are shown” value [7] was “below 0.1 µM”, the Revitalizing agent [7, 8] was “Yes” and the Revitalizing agent ([7]; Dose 10 µm) was “Yes”. It also gave an activity at 1 µM ([7]; 18 h) of 127 ± 3.64%, an activity at 10 µM ([7]; 18 h) of 130 ± 32.4% and an activity at 1 µM ([7]; 42 h) of 101 ± 10.6%. It also gave an activity at 10 µM ([7]; 42 h) of 124 ± 5.34%, an activity at 1 µM ([7]; 46 h) of 106 ± 5.25% and an activity at 10 µM ([7]; 46 h) of 130 ± 11.1%. For the same molecule, the “mitochondrial dehydrogenase activity (effect in words)” value ([7]; between 0.1 and 100 µM, exposure time 18 and 42 h) was “tendency to increase in a dose-dependent manner”, the “mitochondrial dehydrogenase activity (effect in words)” value ([7]; fibroblast cells, higher doses) was “inhibit mitochondrial dehydrogenase activity” and the “mitochondrial dehydrogenase activity (effect in words)” value ([7]; fibroblast cells, low dosage) was “stimulate mitochondrial dehydrogenase activity”.
